# Test results reported in patent US9708338B2, “Aromatic heterocyclylamine derivative having TRPV4-inhibiting activity” (Shionogi & Co., Ltd., priority 2013, dated 2017).
# Molecular target: T1, human TRPV4 (Homo sapiens, UniProt Q9HBA0)
# T1 construct: expressed in transfected cells; host or cells: CHO-K1
# Assay: Test Example 1 Measurement of TRPV4 inhibitory activity (IC50 value)
# Type: cell-based
# Settings: CHO-K1 cells stably expressing human TRPV4; Fluo 4-AM, FLIPR TETRA; final 1 μmol/L 4α-PDD
# Description: (§1) For each compound, TRPV4 inhibitory activity was measured using cells. (Method) TRPV4 inhibitory activity of the compound was evaluated in accordance with the following procedure.
# (§2) (1) The TRPV4 inhibitory activity was measured using CHO-K1 cells stably expressing human TRPV4.
# (2) In the day before the experimental day, frozen cell were thawed and washed with the culture medium (MEM-α, 10% FBS, 2 mmol/L GlutaMax, 50 unit Penicillin, 50 μg/mL Streptomycin, 20 mmol/L HEPES). Then cells were suspended in the culture medium.
# (3) The 384-well plates which hTRPV4/CHO cells were seeded at densities of 4000 cells/well in the culture medium and cultured in a CO2 incubator in the presence of 5% CO2 at 37° C. for overnight was used as assay plates.
# (4) The assay plate was washed with assay buffer (Hanks, 20 mmol/L HEPES, 2.5 mmol/L probenecid, pH 7.4), and the buffer were remained at 20 μL/well.
# (5) 10 μl of dye loading buffer (9 μmol/L Fluo 4-AM, 0.09% Pluronic F-127/assay buffer) was added to each well, then the assay plate was incubated in a CO2 incubator in the presence of 5% CO2 at 37° C. for one hour (final 3 μmol/L Fluo4-AM).
# (6) The assay plate was washed with the assay buffer, and the buffers were remained at 20 μL/well. Then the assay plate was incubated for 10 min at room temperature.
# (7) 20 μL/well of diluted compound solution was dispensed to each well in the compound plate, and mixed with built-in Pipette and Mixer of the Fluorescence analysis system FLIPR TETRA (Molecular devices).
# (8) After incubation for 5 min, 20 μL/well of 4α-PDD solution were applied to each well of assay plate and mixed with the FLIPR TETRA (final 1 μmol/L 4α-PDD).
# (9) The fluorescent intensity was measured with FLIPR TETRA system for 5 min from the point of time addition the compound solution, at Ex 470-495 nm, Em 515-575 nm wavelength.
# (§3) In addition, TRPV4 inhibitory activity (IC50 value) of a compound was evaluated according to the following procedure.
# (§4) (10) In the presence of the compound, the difference between maximal and minimal of fluorescent intensity value for 5 min from just before addition of 4α-PDD solution was calculated, and it was referred as Max−Min value. Max−Min value of the compound A at 1 μmol/L was defined as 100% inhibitory activity, Max−Min value in the absence of the compound was defined as 0% inhibitory activity. The TRPV4 inhibitory activity of the compound was calculated by the following formula. Inhibition ratio=(1−(Max−Min value of the compound−100% inhibitory activity)/(0% inhibitory activity−100% inhibitory activity))×100
# Herein, the compound A is the compound I-186 described in PCT/JP2013/058722.
# (11) Inhibitory activity was calculated at 10 points with three fold serial dilution, in the final concentration of the compound from 10 μmol/L to 0.5 nmol/L, the IC50 value (nmol/L) was calculated by logistic approximation method.
# T1 sequence (Q9HBA0 whole entry): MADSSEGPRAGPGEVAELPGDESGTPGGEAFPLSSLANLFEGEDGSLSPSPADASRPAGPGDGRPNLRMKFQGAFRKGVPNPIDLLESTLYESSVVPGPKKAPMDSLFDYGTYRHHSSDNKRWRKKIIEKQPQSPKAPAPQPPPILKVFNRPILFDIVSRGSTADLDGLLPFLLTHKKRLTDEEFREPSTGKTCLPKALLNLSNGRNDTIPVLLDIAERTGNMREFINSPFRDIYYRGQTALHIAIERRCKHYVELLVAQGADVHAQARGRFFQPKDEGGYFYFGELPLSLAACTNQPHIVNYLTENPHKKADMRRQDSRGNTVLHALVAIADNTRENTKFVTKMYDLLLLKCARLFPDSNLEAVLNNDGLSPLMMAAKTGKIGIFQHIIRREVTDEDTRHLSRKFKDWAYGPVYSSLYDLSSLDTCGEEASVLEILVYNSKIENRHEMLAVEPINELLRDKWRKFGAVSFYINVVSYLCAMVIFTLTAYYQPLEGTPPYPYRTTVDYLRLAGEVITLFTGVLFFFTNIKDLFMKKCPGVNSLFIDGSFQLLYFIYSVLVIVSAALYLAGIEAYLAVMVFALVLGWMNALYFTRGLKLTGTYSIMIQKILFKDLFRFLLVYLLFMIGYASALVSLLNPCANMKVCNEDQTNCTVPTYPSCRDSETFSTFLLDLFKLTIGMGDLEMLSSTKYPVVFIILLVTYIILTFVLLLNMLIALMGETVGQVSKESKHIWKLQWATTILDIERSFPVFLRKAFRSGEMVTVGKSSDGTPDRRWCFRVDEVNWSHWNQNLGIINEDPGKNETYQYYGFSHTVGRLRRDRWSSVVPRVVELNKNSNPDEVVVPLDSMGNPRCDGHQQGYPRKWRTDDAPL
row,Compound,IC50 [nM]
1,Cc1nc(C)c(-c2csc(Nc3ccc(S(=O)(=O)Cc4ccc(Cl)cc4)cn3)n2)s1 [Compound I-17],37
2,Cc1nc(C(C)O)sc1-c1csc(Nc2ccc(CCNc3ccc(Cl)cc3F)cn2)n1 (centres unmarked) [Compound I-150],30
3,COCCN(Cc1ccc(Nc2nc(-c3sc(C)nc3C)cs2)nc1)c1ccc(Cl)cc1F [Compound I-184],4
4,CC(=O)N(Cc1ccc(Nc2nc(-c3sc(C)nc3C)cs2)nc1)c1ccc(Cl)cc1F [Compound I-49],8.6
5,Cc1nc(C)c(-c2csc(Nc3ccc(C(=O)Nc4ccc(Oc5ccccc5)cc4)cn3)n2)s1 [Compound I-270],26
6,Cc1nc(C(C)O)sc1-c1csc(Nc2ccc(C(=O)Nc3ccc(C#N)cc3F)cn2)n1 (centres unmarked) [Compound I-134],6.8
7,Cc1nc(C)c(-c2csc(Nc3ccc(C(=O)Nc4cccnc4)cn3)n2)s1 [Compound I-257],14
8,Cc1nc(C)c(-c2csc(Nc3ccc(CN(CC(C)C)c4ccc(Cl)cc4F)cn3)n2)s1 [Compound I-200],2.5
9,Cc1nc(C)c(-c2c[nH]c(Nc3ccc(CNc4ccc(Cl)cc4F)cn3)n2)s1 [Compound I-41],42
10,Cc1nc(C)c(-c2csc(Nc3ccc(OCc4ccc(Cl)cc4)cn3)n2)s1 [Compound I-312],24
11,CO[C@H]1C[C@H]2CC[C@@H](C1)N2C(=O)c1ccc(Nc2nc(-c3sc(C(N)=O)nc3C)cs2)nc1 [Compound I-118],9.1
12,Cc1nc(C)c(-c2csc(Nc3ccc(/C=C/c4ccc(Cl)cc4)cn3)n2)s1 [Compound I-54],27
13,Cc1nc(C)c(-c2csc(Nc3ccc(CNC4(C(F)(F)F)CCCC4)cn3)n2)s1 [Compound I-228],1.7
14,Cc1nc([C@H](C)O)sc1-c1csc(Nc2ccc3c(n2)CCCC3Nc2ccc(Cl)cc2F)n1 (some centres unmarked) [Compound I-10],14
15,Cc1nc(C)c(-c2csc(Nc3ccc(C(C)Nc4ccc(Cl)cc4)cn3)n2)s1 (centres unmarked) [Compound I-188],6.4
16,Cc1nc(C(C)O)sc1-c1csc(Nc2ccc(CCOc3ccc(Cl)cc3F)cn2)n1 (centres unmarked) [Compound I-6],52
17,Cc1nc(C)c(-c2csc(Nc3ccc(C(=O)Cc4ccc(Cl)cc4)cn3)n2)s1 [Compound I-13],6.4
18,Cc1nc(C)c(-c2csc(Nc3ccc(CNc4ccc(Cl)cc4F)cn3)n2)o1 [Compound I-43],39
19,Cc1nc(C)c(-c2csc(Nc3ccc(C(=O)NC(C)(C)C(F)(F)F)cn3)n2)s1 [Compound I-274],3.3
20,Cc1nc(C(C)O)sc1-c1csc(Nc2ccc(OC(F)(F)F)cn2)n1 (centres unmarked) [Compound I-140],42
21,CC(O)c1nc(CCO)c(-c2csc(Nc3ccc(CNc4ccc(Cl)cc4F)cn3)n2)s1 (centres unmarked) [Compound I-79],27
22,Cc1nc([C@H](C)O)sc1-c1csc(Nc2ccc(COC(C(F)(F)F)C(F)(F)F)cn2)n1 [Compound I-45],8.1
23,CC(O)c1nc(CC#N)c(-c2csc(Nc3ccc(CNc4ccc(Cl)cc4F)cn3)n2)s1 (centres unmarked) [Compound I-132],14

# Molecular target: T1, human TRPV4
# Assay: Test Example 2 Measurement of TRPV4 inhibitory activity (IC50 value)
# Type: cell-based
# Settings: CHO-K1 cells stably expressing human TRPV4; DMEM 10% FBS, 5000 cells/well; final 0.15 μmol/L 4α-PDD
# Description: as §1, §2
# (2) In the day before the experimental day, frozen cell were thawed and washed with the culture medium (DMEM, 10% FBS, 2 mmol/L GlutaMax, 50 unit Penicillin, 50 μg/mL Streptomycin, 0.1 mmol/L Non-Essential Amino Acids, 25 mmol/L HEPES). Then cells were suspended in the culture medium. (3) The 384-well plates which hTRPV4/CHO cells were seeded at densities of 5000 cells/well in the culture medium and cultured in a CO2 incubator in the presence of 5% CO2 at 37° C. for overnight was used as assay plates. (4) The assay plate was washed with assay buffer (Hanks, 20 mmol/L HEPES, 2.5 mmol/L probenecid, pH7.4), and the buffer were remained at 20 μL/well. (5) 10 μl of dye loading buffer (3 μmol/L Fluo 4-AM, 0.03% Pluronic F-127/assay buffer) was added to each well, then the assay plate was incubated in a CO2 incubator in the presence of 5% CO2 at 37° C. for one hour (final 1 μmol/L Fluo4-AM). (6) The assay plate was washed with the assay buffer, and the buffers were remained at 20 μL/well. Then the assay plate was incubated for 10 min at room temperature. (7) 20 μL/well of diluted compound solution was dispensed to each well in the compound plate, and mixed with built-in Pipette and Mixer of the Fluorescence analysis system FLIPR TETRA (Molecular devices). (8) After incubation for 5 min, 20 μL/well of 4α-PDD solution were applied to each well of assay plate and mixed with the FLIPR TETRA (final 0.15 μmol/L 4α-PDD). (9) The fluorescent intensity was measured with FLIPR TETRA system for 5 min from the point of time addition the […], at Ex 470-495 nm, Em 515-575 nm wavelength.
# as §3
# as §4, with “of the above compound A” for “of the compound A”, “inhibitory activity))×100 (11) Inhibitory activity was calculated at 10 points with three fold serial dilution, in the final concentration of the compound from 10 μmol/L to 0.5 nmol/L, the IC50 value (nmol/L) was calculated by logistic approximation method. (Result)” for “inhibitory activity))×100”
row,Compound,IC50 [nM]
1,CO[C@H]1C[C@H]2CC[C@@H](C1)N2C(=O)c1ccc(Nc2nc(-c3sc(C)nc3C)cs2)nc1 [Compound I-719],1.6
2,Cc1nc(C)c(-c2csc(Nc3ccc(C(=O)N4[C@@H]5CC[C@H]4COC5)cn3)n2)s1 [Compound I-662],6.7
3,Cc1nc(C)c(-c2csc(Nc3ccc(C(=O)N4[C@@H]5CC[C@H]4COC5)c(F)n3)n2)s1 [Compound I-744],4.2
4,Cc1nc(C)c(-c2csc(Nc3ccc(C(=O)N4C[C@H]5CC[C@@H](C4)O5)cn3)n2)s1 [Compound I-703],13
5,Cc1nc(C)c(-c2csc(Nc3ccc(C(=O)N4CCOc5ccccc54)cn3)n2)s1 [Compound I-831],2.9
6,CCN(CC)C(=O)N1C[C@H]2CC[C@@H](C1)N2C(=O)c1ccc(Nc2nc(-c3sc(C)nc3C)cs2)nc1 [Compound I-592],3.9
7,Cc1nc(C)c(-c2csc(Nc3ccc(CN4[C@@H]5CC[C@H]4COC5)cn3)n2)s1 [Compound I-799],6.3
8,Cc1nc(C)c(-c2csc(Nc3ccc(C(=O)N4[C@@H]5CC[C@H]4CSC5)cn3)n2)s1 [Compound I-843],2.6

# Test system: not listed separately
# Assay: Test Example 7 Metabolism stability test
# Type: in vitro ADME
# Settings: 0.5 μmol/L of test compound, human liver microsomes 0.5 mg protein/mL, 37° C.
# Description: Using commercially available pooled human hepatic microsomes, a compound of the present invention was reacted for a constant time, and a remaining rate was calculated by comparing a reacted sample and an unreacted sample, thereby, a degree of metabolism in liver was assessed.
# A reaction was performed (oxidative reaction) at 37° C. for 0 minute or 30 minutes in the presence of 1 mmol/L NADPH in 0.2 mL of a buffer (50 mmol/L Tris-HCl pH 7.4, 150 mmol/L potassium chloride, 10 mmol/L magnesium chloride) containing 0.5 mg protein/mL of human liver microsomes. After the reaction, 50 μL of the reaction solution was added to 100 μL of a methanol/acetonitrile=1/1 (v/v), mixed and centrifuged at 3000 rpm for 15 minutes. The compound of the present invention in the supernatant was quantified by LC/MS/MS, and a remaining amount of the compound of the present invention after the reaction was calculated, letting a compound amount at 0 minute reaction time to be 100%. Hydrolysis reaction was performed in the absence of NADPH and glucuronidation reaction was in the presence of 5 mmol/L UDP-glucuronic acid in place of NADPH, followed by similar operations. (Result) % inhibition was shown at 0.5 μmol/L of test compound.
row,Compound,Percent of compound remaining after 30 min incubation [%]
1,CC(O)c1nc(C(O)CO)c(-c2csc(Nc3ccc(CNc4ccc(Cl)cc4F)cn3)n2)s1 (centres unmarked) [Compound I-69],106
